From US20240228463A1, “SODIUM CHANNEL INHIBITORS AND METHODS OF DESIGNING SAME” (Genentech, Inc., priority 2021, published 2024)

target: T1, hNaV1.7 (Homo sapiens, UniProt Q15858); assay: Patch voltage clamp electrophysiology (EP), Syncropatch 384PE, Nav1.7 in CHO cells; format: cell-based; conditions: holding potential −50 mV, inhibition based on 7.5 min compound incubation, read-out: hNaV1.7 EP_SP;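 further: Nav1.7 stably expressed from cDNA in CHO cells, holding potential of −50 mV kept for the entire experiment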
T1 construct: expressed in transfected cells
T1 sequence (Q15858 1-1977 isoform Q15858-3): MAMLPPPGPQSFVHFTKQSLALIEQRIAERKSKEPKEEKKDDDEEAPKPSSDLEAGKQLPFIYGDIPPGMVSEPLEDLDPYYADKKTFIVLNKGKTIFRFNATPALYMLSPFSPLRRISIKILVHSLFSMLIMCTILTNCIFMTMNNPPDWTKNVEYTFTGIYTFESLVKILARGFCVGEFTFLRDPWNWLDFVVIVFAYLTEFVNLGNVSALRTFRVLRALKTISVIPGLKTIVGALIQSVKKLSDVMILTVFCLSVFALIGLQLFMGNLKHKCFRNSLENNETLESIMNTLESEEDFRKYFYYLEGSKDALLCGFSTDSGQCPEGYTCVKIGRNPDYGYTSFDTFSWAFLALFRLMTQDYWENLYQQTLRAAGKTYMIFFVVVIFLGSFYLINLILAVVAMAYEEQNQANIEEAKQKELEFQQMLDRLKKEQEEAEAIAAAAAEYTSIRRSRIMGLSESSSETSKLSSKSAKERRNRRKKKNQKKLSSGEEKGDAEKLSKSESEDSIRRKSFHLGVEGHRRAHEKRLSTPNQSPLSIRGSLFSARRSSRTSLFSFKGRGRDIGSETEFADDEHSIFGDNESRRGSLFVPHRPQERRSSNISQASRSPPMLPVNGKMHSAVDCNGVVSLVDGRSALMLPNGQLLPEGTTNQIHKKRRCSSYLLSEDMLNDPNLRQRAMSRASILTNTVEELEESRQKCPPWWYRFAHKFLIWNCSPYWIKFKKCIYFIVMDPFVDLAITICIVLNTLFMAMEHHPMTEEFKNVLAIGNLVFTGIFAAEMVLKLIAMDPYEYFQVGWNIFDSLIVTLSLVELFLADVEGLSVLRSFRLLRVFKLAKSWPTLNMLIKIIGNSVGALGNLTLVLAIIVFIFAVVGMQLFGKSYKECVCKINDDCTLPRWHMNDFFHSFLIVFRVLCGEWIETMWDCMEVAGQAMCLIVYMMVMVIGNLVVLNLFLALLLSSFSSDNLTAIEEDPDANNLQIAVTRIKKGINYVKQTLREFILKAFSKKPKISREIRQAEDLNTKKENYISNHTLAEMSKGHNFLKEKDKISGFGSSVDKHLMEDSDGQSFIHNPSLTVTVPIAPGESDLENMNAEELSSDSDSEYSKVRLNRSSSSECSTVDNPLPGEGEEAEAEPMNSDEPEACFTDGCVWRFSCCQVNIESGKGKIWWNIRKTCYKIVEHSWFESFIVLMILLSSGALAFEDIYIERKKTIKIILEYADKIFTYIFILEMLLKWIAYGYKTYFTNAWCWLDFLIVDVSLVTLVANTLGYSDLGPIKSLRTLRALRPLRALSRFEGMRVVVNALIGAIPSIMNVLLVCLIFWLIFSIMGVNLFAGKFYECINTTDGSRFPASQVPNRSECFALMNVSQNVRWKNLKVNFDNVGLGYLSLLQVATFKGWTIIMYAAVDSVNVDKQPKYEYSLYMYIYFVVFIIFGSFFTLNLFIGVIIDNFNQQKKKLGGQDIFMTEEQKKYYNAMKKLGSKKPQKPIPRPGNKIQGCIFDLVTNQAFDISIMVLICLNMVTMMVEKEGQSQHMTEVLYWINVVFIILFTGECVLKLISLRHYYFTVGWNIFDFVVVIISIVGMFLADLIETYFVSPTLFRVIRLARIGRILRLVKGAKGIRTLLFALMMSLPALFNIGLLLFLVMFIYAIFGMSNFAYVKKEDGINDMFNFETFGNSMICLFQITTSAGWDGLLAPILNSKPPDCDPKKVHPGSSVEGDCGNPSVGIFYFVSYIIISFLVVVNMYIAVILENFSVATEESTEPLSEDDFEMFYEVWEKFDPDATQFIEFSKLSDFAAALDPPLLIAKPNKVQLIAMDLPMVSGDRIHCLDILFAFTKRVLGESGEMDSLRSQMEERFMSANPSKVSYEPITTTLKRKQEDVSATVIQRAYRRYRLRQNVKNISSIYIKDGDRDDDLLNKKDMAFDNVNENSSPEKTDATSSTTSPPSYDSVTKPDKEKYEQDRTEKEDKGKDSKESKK

Row | IC50 [µM] | SMILES
1 | 0.94 | O=C(NS(=O)(=O)c1cnn(-c2ccccc2F)c1)c1cc(Cl)c(OCC2CCCC2)cc1F [Example 269, 5-chloro-4-(cyclopentylmethoxy)-2-fluoro-N-((1-(2-fluorophenyl)-1H-pyrazol-4-yl)sulfonyl)benzamide]
2 | 0.79 | O=C(NS(=O)(=O)c1cnn(-c2cccc(C(F)(F)F)c2)c1)c1cc(Cl)c(OCC2CCCC2)cc1F [Example 259, 5-chloro-4-(cyclopentylmethoxy)-2-fluoro-N-((1-(3-(trifluoromethyl)phenyl)-1H-pyrazol-4-yl)sulfonyl)benzamide]
3 | 0.76 | O=C(NS(=O)(=O)c1ccc2ccccc2c1)c1cc(Cl)c(OCC2CCCC2)cc1F [Example 290, 5-chloro-4-(cyclopentylmethoxy)-2-fluoro-N-(naphthalen-2-ylsulfonyl)benzamide]
4 | 0.19 | COc1ccccc1COc1ccc(S(=O)(=O)NC(=O)c2cc(Cl)c(OCC3CCCC3)cc2F)cc1 [Example 318, 5-chloro-4-(cyclopentylmethoxy)-2-fluoro-N-((4-((2-methoxybenzyl)oxy)phenyl)sulfonyl)benzamide]
5 | 0.65 | CC(C)/C=C/c1cc2cnc(NS(=O)(=O)c3cc(Cl)c(N[C@H]4CCCC[C@@H]4N(C)C)cc3F)cc2n1C [Example 102, 5-chloro-4-(((1S,2S)-2-(dimethylamino)cyclohexyl)amino)-2-fluoro-N-(1-methyl-2-((E)-3-methylbut-1-en-1-yl)-1H-pyrrolo[3,2-c]pyridin-6-yl)benzenesulfonamide]
6 | 0.22 | CN(C)[C@H]1CCCC[C@@H]1Nc1ccc(S(=O)(=O)Nc2nccs2)c(F)c1 [Example 332, 4-(((1S,2S)-2-(dimethylamino)cyclohexyl)amino)-2-fluoro-N-(thiazol-2-yl)benzenesulfonamide]
7 | 0.068 | O=C(NS(=O)(=O)N1CCC(OC2CCCNC2)CC1)c1cc(Cl)c(OCC2CCCC2)cc1F (racemic) [Example 51, 5-chloro-4-(cyclopentylmethoxy)-2-fluoro-N-((4-(piperidin-3-yloxy)piperidin-1-yl)sulfonyl)benzamide 2,2,2-trifluoroacetate]
8 | 0.052 | CC(C)S(=O)(=O)NC(=O)c1cc(Cl)c(OCC2CCCC2)cc1F [Example 247, 5-chloro-4-(cyclopentylmethoxy)-2-fluoro-N-(isopropylsulfonyl)benzamide]
9 | 0.038 | Cn1cc(COc2ccc(S(=O)(=O)NC(=O)c3cc(Cl)c(OCC4CCCC4)cc3F)cc2)cn1 [Example 299, 5-chloro-4-(cyclopentylmethoxy)-2-fluoro-N-((4-((1-methyl-1H-pyrazol-4-yl)methoxy)phenyl)sulfonyl)benzamide]
10 | 0.083 | Cn1ccnc1COc1ccc(S(=O)(=O)NC(=O)c2cc(Cl)c(OCC3CCCC3)cc2F)cc1 [Example 312, 5-chloro-4-(cyclopentylmethoxy)-2-fluoro-N-((4-((1-methyl-1H-imidazol-2-yl)methoxy)phenyl)sulfonyl)benzamide]
11 | 0.13 | O=C(NS(=O)(=O)N1CCC(OC2CN(C3COC3)C2)CC1)c1cc(Cl)c(OCC2CCCC2)cc1F [Example 11, 5-chloro-4-(cyclopentylmethoxy)-2-fluoro-N-((4-((1-(oxetan-3-yl)azetidin-3-yl)oxy)piperidin-1-yl)sulfonyl)benzamide]
12 | 0.83 | CN(C)[C@H]1CCCC[C@@H]1Oc1ccc(S(=O)(=O)Nc2ccc(Oc3ccc(Cl)cc3)cn2)c(F)c1 [Example 258, N-(5-(4-chlorophenoxy)pyridin-2-yl)-4-(((1S,2S)-2-(dimethylamino)cyclohexyl)oxy)-2-fluorobenzenesulfonamide]
13 | 0.0091 | O=C(NS(=O)(=O)N1CCCC1)c1cc(Cl)c(OCC2CCCC2)cc1F [Example 22, 5-chloro-4-(cyclopentylmethoxy)-2-fluoro-N-(pyrrolidin-1-ylsulfonyl)-benzamide]
14 | 0.016 | O=C(NS(=O)(=O)c1ccc(OCc2ccncc2)cc1)c1cc(Cl)c(OCC2CCCC2)cc1F [Example 85, 5-chloro-4-(cyclopentylmethoxy)-2-fluoro-N-((4-(pyridin-4-ylmethoxy)-phenyl)sulfonyl)benzamide]
15 | 0.028 | Cn1cncc1COc1ccc(S(=O)(=O)NC(=O)c2cc(Cl)c(OCC3CCCC3)cc2F)cc1 [Example 316, 5-chloro-4-(cyclopentylmethoxy)-2-fluoro-N-((4-((1-methyl-1H-imidazol-5-yl)methoxy)phenyl)sulfonyl)benzamide]
16 | 0.23 | COc1ccccc1S(=O)(=O)NC(=O)c1cc(Cl)c(OCC2CCCC2)cc1F [Example 246, 5-chloro-4-(cyclopentylmethoxy)-2-fluoro-N-((2-methoxyphenyl)sulfonyl)benzamide]
17 | 0.012 | O=C(NS(=O)(=O)N1CCCC12CC2)c1cc(Cl)c(OCC2CCCC2)cc1F [Example 229, N-((4-azaspiro[2.4]heptan-4-yl)sulfonyl)-5-chloro-4-(cyclopentylmethoxy)-2-fluorobenzamide]
18 | 0.51 | O=C(NS(=O)(=O)C1=Cc2ccccc2CC1)c1cc(Cl)c(OCC2CCCC2)cc1F [Example 275, 5-chloro-4-(cyclopentylmethoxy)-N-((3,4-dihydronaphthalen-2-yl)sulfonyl)-2-fluorobenzamide]
19 | 0.17 | O=C(NS(=O)(=O)N1CCC(OCc2ccccc2)CC1)c1cc(Cl)c(OCC2CCCC2)cc1F [Example 41, N-((4-(benzyloxy)piperidin-1-yl)sulfonyl)-5-chloro-4-(cyclopentylmethoxy)-2-fluorobenzamide]

Row | IC50 [µM] | SMILES
20 | 0.11 | O=C(NS(=O)(=O)N1CCN2CCNCC2C1)c1cc(Cl)c(OCC2CCCC2)cc1F (stereo not shown) [Example 23, 5-chloro-4-(cyclopentylmethoxy)-2-fluoro-N-((octahydro-2H-pyrazino[1,2-a]pyrazin-2-yl)sulfonyl)benzamide]
21 | 0.13 | O=C(NS(=O)(=O)c1ccc(OCc2ccccc2)cc1)c1cc(Cl)c(OCC2CCCC2)cc1F [Example 294, N-((4-(benzyloxy)phenyl)sulfonyl)-5-chloro-4-(cyclopentylmethoxy)-2-fluorobenzamide]
22 | 0.43 | O=C(NS(=O)(=O)N1CC[C@@H]2CN[C@@H]2C1)c1cc(Cl)c(OCC2CCCC2)cc1F [Example 231, N-((1S,6R)-3,8-diazabicyclo[4.2.0]octan-3-ylsulfonyl)-5-chloro-4-(cyclopentylmethoxy)-2-fluorobenzamide 2,2,2-trifluoroacetate]
23 | 0.016 | C[C@@H]1C[C@H]1S(=O)(=O)NC(=O)c1cc(Cl)c(OCC2CCCC2)cc1F (single isomer, unassigned) [Example 251]
24 | 0.34 | CN(C)C1CN(S(=O)(=O)NC(=O)c2cc(Cl)c(OCC3CCCC3)cc2F)C1 [Example 234, 5-chloro-4-(cyclopentylmethoxy)-N-((3-(dimethylamino)azetidin-1-yl)sulfonyl)-2-fluorobenzamide]
25 | 0.1 | C[C@@H]1Cc2ccccc2N(S(=O)(=O)NC(=O)c2cc(Cl)c(OCC3CCCC3)cc2F)C1 (single isomer, unassigned) [Example 17]
26 | 0.036 | O=C(NS(=O)(=O)N1CCC(OC2CNC2)CC1)c1cc(C2CC2)c(OCC2CCCC2)cc1F [Example 47, N-((4-(azetidin-3-yloxy)piperidin-1-yl)sulfonyl)-4-(cyclopentylmethoxy)-5-cyclopropyl-2-fluorobenzamide]
27 | 0.1 | CO[C@H]1CC[C@H](S(=O)(=O)NC(=O)c2cc(Cl)c(OCC3CCCC3)cc2F)CC1 [Example 86, trans-5-chloro-4-(cyclopentylmethoxy)-2-fluoro-N-((4-methoxycyclohexyl)sulfonyl)benzamide]
28 | 0.31 | O=C(NS(=O)(=O)N1CCc2ccccc2C1)c1cc(Cl)c(OCC2CCCC2)cc1F [Example 19, 5-chloro-4-(cyclopentylmethoxy)-N-((3,4-dihydroisoquinolin-2(1H)-yl)sulfonyl)-2-fluorobenzamide]
29 | 0.039 | CC(C)c1cc(C(=O)NS(=O)(=O)N2CCC(OC3CN(C)C3)CC2)c(F)cc1OCC1CCCC1 [Example 5, 4-(cyclopentylmethoxy)-2-fluoro-5-isopropyl-N-((4-((1-methylazetidin-3-yl)oxy)piperidin-1-yl)sulfonyl)benzamide]
30 | 0.32 | COc1cc(C(=O)NS(=O)(=O)N2CCC(OC3CN(C)C3)CC2)c(F)cc1OCC1CCCC1 [Example 6, 4-(cyclopentylmethoxy)-2-fluoro-5-methoxy-N-((4-((1-methylazetidin-3-yl)oxy)piperidin-1-yl)sulfonyl) benzamide]
31 | 0.022 | CC(=O)N1CCc2cccc(COc3ccc(S(=O)(=O)NC(=O)c4cc(Cl)c(OCC5CCCC5)cc4F)cc3)c2C1 [Example 297, N-((4-((2-acetyl-1,2,3,4-tetrahydroisoquinolin-8-yl)methoxy)phenyl)sulfonyl)-5-chloro-4-(cyclopentylmethoxy)-2-fluorobenzamide]
32 | 0.065 | O=C(NS(=O)(=O)c1ccccc1F)c1cc(Cl)c(OCC2CCCC2)cc1F [Example 241, 5-chloro-4-(cyclopentylmethoxy)-2-fluoro-N-((2-fluorophenyl)sulfonyl)benzamide]
33 | 0.018 | O=C(NS(=O)(=O)c1ccc(OCc2cccnc2)cc1)c1cc(Cl)c(OCC2CCCC2)cc1F [Example 310, 5-chloro-4-(cyclopentylmethoxy)-2-fluoro-N-((4-(pyridin-3-ylmethoxy)phenyl)sulfonyl)benzamide]
34 | 0.76 | COC[C@H](C)S(=O)(=O)NC(=O)c1cc(Cl)c(OCC2CCCC2)cc1F (single isomer, unassigned) [Example 248]
35 | 0.31 | NCCCOc1ccc(S(=O)(=O)NC(=O)c2cc(Cl)c(OCC3CCCC3)cc2F)cc1 [Example 314, N-((4-(3-aminopropoxy)phenyl)sulfonyl)-5-chloro-4-(cyclopentylmethoxy)-2-fluorobenzamide]
36 | 0.088 | O=C(NS(=O)(=O)Cc1cccc(F)c1F)c1cc(Cl)c(OCC2CCCC2)cc1F [Example 268, 5-chloro-4-(cyclopentylmethoxy)-N-((2,3-difluorobenzyl)sulfonyl)-2-fluorobenzamide]
37 | 0.73 | CN(C)[C@H]1CCCC[C@@H]1Oc1ccc(S(=O)(=O)Nc2ccc(SCc3ccccc3Cl)cn2)c(F)c1 [Example 257, N-(5-((2-chlorobenzyl)thio)pyridin-2-yl)-4-(((1S,2S)-2-(dimethylamino)cyclohexyl)oxy)-2-fluorobenzenesulfonamide]
